Test results reported in patent publication US20030049337A1, “Composition for preventing fructose absorption” (NAGAOKA PERFUMERY CO., LTD, priority 2001, published 2003).

Test system: Wistar SPF rats
Conditions: rat, in vivo
Experimental: The subacute toxicity test by oral administration was conducted using Wistar SPF rats. That is, the rats were divided into the control group (n=7) to which the athrocytosis of the usual feed is carried out, and the eucalyptus group (n=7) to which the athrocytosis of the feed which mixed the eucalyptus extract of 1 volume % with usual feed is carried out, and bred each individually. The rats of these groups were made to carry out free ingestion of feed and the potable water.
The amount of food ingested and the amount of drinking water of rats of these groups were measured every day, and weight change was measured twice per week. The test was continued for five weeks. After the test end, by collecting blood from the heart, rats were made to die and pathological changes, malformation, etc. of each organization, such as internal organs, were confirmed after dissection.

Substance: eucalyptus extract
- amount of cholesterol in liver vs control group: significant difference was not observed
- amount of drinking water vs control group: significant difference was not accepted
- amount of food ingested vs control group: significant difference was not accepted
- amount of triglyceride in liver vs control group: significant difference was not observed
- weight change vs control group: significant difference was not accepted
